US20100041089A1, “IMPROVED METHOD FOR DETECTING CHEMICAL […]” (priority 2006, published 2010)

Test system: yeast genes (expressed mRNA)
Test: DNA chip measurement of expressed mRNA of yeast genes after culture with a toxic chemical substance
Type: cell-based, Saccharomyces cerevisiae S288C
Settings: for level of expressed mRNA in the presence of chemical substance / level in the absence of chemical substance: cultured two hours with the chemical substance; for The level of expressed mRNA in the presence of chemical substance/The level of expressed mRNA in the absence of chemical substance: cultured two hours with substance
Outline: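 Expression is given as treated/untreated fluorescence ratio on a whole-genome yeast DNA chip, a ratio of two or more being significant. Log-phase S288C cultures in YPD at 25 °C received the chemical for 2 h at a dose that slows growth without killing. mRNA was reverse-transcribed with Cy3- or Cy5-dUTP.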

## Cl[C@H]1[C@H](Cl)[C@@H](Cl)[C@@H](Cl)[C@H](Cl)[C@H]1Cl [(7), γ-Hexachlorocyclohexane]
Yeast gene YDR133C
  level of expressed mRNA in the presence of chemical substance / level in the absence of chemical substance: 0.2
Yeast gene YDR250C
  level of expressed mRNA in the presence of chemical substance / level in the absence of chemical substance: 1.0
Yeast gene YDR278C
  level of expressed mRNA in the presence of chemical substance / level in the absence of chemical substance: 0.7
Yeast gene YDR281C
  level of expressed mRNA in the presence of chemical substance / level in the absence of chemical substance: 0.6
Yeast gene YDR330W
  The level of expressed mRNA in the presence of chemical substance/The level of expressed mRNA in the absence of chemical substance: 1.3
Yeast gene YDR366C
  level of expressed mRNA in the presence of chemical substance / level in the absence of chemical substance: 1.5
Yeast gene YDR411C
  The level of expressed mRNA in the presence of chemical substance/The level of expressed mRNA in the absence of chemical substance: 2.0
Yeast gene YDR511W
  The level of expressed mRNA in the presence of chemical substance/The level of expressed mRNA in the absence of chemical substance: 1.5
Yeast gene YDR545W
  The level of expressed mRNA in the presence of chemical substance/The level of expressed mRNA in the absence of chemical substance: 1.2
Yeast gene YEL001C
  The level of expressed mRNA in the presence of chemical substance/The level of expressed mRNA in the absence of chemical substance: 1.1
Yeast gene YER004W
  The level of expressed mRNA in the presence of chemical substance/The level of expressed mRNA in the absence of chemical substance: 1.4
Yeast gene YER035W
  The level of expressed mRNA in the presence of chemical substance/The level of expressed mRNA in the absence of chemical substance: 1.9
Yeast gene YER079W
  The level of expressed mRNA in the presence of chemical substance/The level of expressed mRNA in the absence of chemical substance: 1.9
Yeast gene YER106W
  The level of expressed mRNA in the presence of chemical substance/The level of expressed mRNA in the absence of chemical substance: 1.0
Yeast gene YER158C
  The level of expressed mRNA in the presence of chemical substance/The level of expressed mRNA in the absence of chemical substance: 1.2
Yeast gene YER163C
  The level of expressed mRNA in the presence of chemical substance/The level of expressed mRNA in the absence of chemical substance: 1.5
Yeast gene YER175C
  The level of expressed mRNA in the presence of chemical substance/The level of expressed mRNA in the absence of chemical substance: 2.3
Yeast gene YFL006W
  The level of expressed mRNA in the presence of chemical substance/The level of expressed mRNA in the absence of chemical substance: 1.0
Yeast gene YFL010C
  The level of expressed mRNA in the presence of chemical substance/The level of expressed mRNA in the absence of chemical substance: 1.5
Yeast gene YFL024C
  The level of expressed mRNA in the presence of chemical substance/The level of expressed mRNA in the absence of chemical substance: 3.3
Yeast gene YFL032W
  The level of expressed mRNA in the presence of chemical substance/The level of expressed mRNA in the absence of chemical substance: 1.1
Yeast gene YFR026C
  level of expressed mRNA in the presence of chemical substance / level in the absence of chemical substance: 1.3
Yeast gene YGL037C
  The level of expressed mRNA in the presence of chemical substance/The level of expressed mRNA in the absence of chemical substance: 2.9
Yeast gene YGL047W
  The level of expressed mRNA in the presence of chemical substance/The level of expressed mRNA in the absence of chemical substance: 1.7
Yeast gene YGL053W
  The level of expressed mRNA in the presence of chemical substance/The level of expressed mRNA in the absence of chemical substance: 3.7
Yeast gene YGL088W
  level of expressed mRNA in the presence of chemical substance / level in the absence of chemical substance: 1.0
Yeast gene YGL121C
  The level of expressed mRNA in the presence of chemical substance/The level of expressed mRNA in the absence of chemical substance: 4.7
Yeast gene YGL199C
  The level of expressed mRNA in the presence of chemical substance/The level of expressed mRNA in the absence of chemical substance: 1.3
Yeast gene YGR038W
  level of expressed mRNA in the presence of chemical substance / level in the absence of chemical substance: 1.1
Yeast gene YGR101W
  The level of expressed mRNA in the presence of chemical substance/The level of expressed mRNA in the absence of chemical substance: 1.5
Yeast gene YGR110W
  The level of expressed mRNA in the presence of chemical substance/The level of expressed mRNA in the absence of chemical substance: 1.7
Yeast gene YGR130C
  The level of expressed mRNA in the presence of chemical substance/The level of expressed mRNA in the absence of chemical substance: 1.3
Yeast gene YGR139W
  level of expressed mRNA in the presence of chemical substance / level in the absence of chemical substance: 0.8
Yeast gene YGR154C
  The level of expressed mRNA in the presence of chemical substance/The level of expressed mRNA in the absence of chemical substance: 2.0
Yeast gene YGR221C
  The level of expressed mRNA in the presence of chemical substance/The level of expressed mRNA in the absence of chemical substance: 1.2
Yeast gene YGR243W
  level of expressed mRNA in the presence of chemical substance / level in the absence of chemical substance: 1.9
Yeast gene YGR293C
  level of expressed mRNA in the presence of chemical substance / level in the absence of chemical substance: 1.3
Yeast gene YHL006C
  level of expressed mRNA in the presence of chemical substance / level in the absence of chemical substance: 1.2
Yeast gene YHR095W
  level of expressed mRNA in the presence of chemical substance / level in the absence of chemical substance: 0.8
Yeast gene YHR105W
  level of expressed mRNA in the presence of chemical substance / level in the absence of chemical substance: 0.9
Yeast gene YHR138C
  The level of expressed mRNA in the presence of chemical substance/The level of expressed mRNA in the absence of chemical substance: 3.0
Yeast gene YHR181W
  level of expressed mRNA in the presence of chemical substance / level in the absence of chemical substance: 0.8
Yeast gene YHR199C
  The level of expressed mRNA in the presence of chemical substance/The level of expressed mRNA in the absence of chemical substance: 1.1
Yeast gene YIL023C
  The level of expressed mRNA in the presence of chemical substance/The level of expressed mRNA in the absence of chemical substance: 1.2
Yeast gene YIL041W
  The level of expressed mRNA in the presence of chemical substance/The level of expressed mRNA in the absence of chemical substance: 0.8
Yeast gene YIL087C
  The level of expressed mRNA in the presence of chemical substance/The level of expressed mRNA in the absence of chemical substance: 1.8
Yeast gene YIL127C
  level of expressed mRNA in the presence of chemical substance / level in the absence of chemical substance: 0.6
Yeast gene YJL017W
  level of expressed mRNA in the presence of chemical substance / level in the absence of chemical substance: 0.2
Yeast gene YJL037W
  level of expressed mRNA in the presence of chemical substance / level in the absence of chemical substance: 1.2
Yeast gene YJL057C
  The level of expressed mRNA in the presence of chemical substance/The level of expressed mRNA in the absence of chemical substance: 2.7
Yeast gene YJL066C
  The level of expressed mRNA in the presence of chemical substance/The level of expressed mRNA in the absence of chemical substance: 1.6
Yeast gene YJL082W
  The level of expressed mRNA in the presence of chemical substance/The level of expressed mRNA in the absence of chemical substance: 0.4
Yeast gene YJL097W
  level of expressed mRNA in the presence of chemical substance / level in the absence of chemical substance: 1.0
